Experiments:
[1] = test system: steroid 5-α-reductase; assay: kinetic mechanism of inhibition versus testosterone (competitive / uncompetitive); assay type: biochemical; conditions: competitive = binds E-NADPH; uncompetitive = binds E-NADP+
Source text: Dead-end inhibitors of bisubstrate enzymes which follow ordered kinetic mechanisms can associate to one or more existing enzyme species. With steroid 5-α-reductase, enzyme forms to which such a steroidal-inhibitor might bind would include free enzyme, E, and enzyme binary complexes with cofactor, E-NADPH and E-NADP^+.
The response of the velocity of enzyme catalysis with varying concentrations of testosterone in the presence of an inhibitor that binds to the E-NADPH complex can be described by equation 1; this model is denoted as competitive inhibition versus the variable substrate, in this case testosterone.
v=VM A/[Ka (1+I/Kis)+A] (1)
v=VM A/[Ka +A(1+K/Kii)] (2)
The results of these analyses are typically expressed in double reciprocal plots: 1/velocity versus 1/[testosterone].

[2] = test system: involuted ventral prostate; assay: testosterone induced regrowth of the involuted ventral prostate of castrated male rats; assay type: in vivo, rat; conditions: castrated + testosterone implant, 10 days, N = 5 rats/group
Method: Certain combinations of the invention were tested for their in vivo potency in inhibiting steroid 5-α-reductase activity.
(§1) When male rats are castrated and allowed to go untreated for 1 month, the ventral prostates involutes to approximately 10% of its original total cell number. If exogeneous testosterone is given to these castrated rats to restore the physiological serum level of testosterone, the involuted ventral prostate rapidly proliferates restoring its original cell content within 2-3 weeks. Using the ability to inhibit this testosterone induced regrowth of the rat ventral prostate, the efficacy and potency of twice daily oral administering of the "competitive" inhibitor and the "uncompetitive" inhibitor individually and in combination were compared.
(§2) To perform these experiments, a total of 50 male Sprague Dawley rats (From Harlan Sprague-Dawley, Inc.) of 250-300 gm starting weight were used. Forty-five of these animals were castrated and allowed to go untreated for 1 month to produce maximal ventral prostatic and seminal vesicle involution. After this 1 month period, 40 of the 45 castrated animals were implanted subcutaneously in the flank with a 2.5 cm long testosterone filled silastic capsule. The 50 animals were set up in 10 groups as follows:
(§3) The animals were administered the 5-α-reductase inhibiting compounds twice a day (BID) for 10 consecutive days. This test compound was dissolved in propylene glycol and diluted in normal saline. At the end of the treatment period blood was collected from the animals and then they were sacrificed, the ventral prostrates were excised and weighed, and DHT levels were measured by the following procedure.
Prostate tissue was excised, trimmed, weighed, minced and washed with phosphate buffer. The tissue then was homogenized in phosphate buffer and extracted by addition of ethyl acetate and mixing on an orbital mixer for forty-five minutes. The ethyl acetate was evaporated, the residue was reconstituted in ethanol, and was centrifuge filtered using […] filter paper. The components then were separated using reverse-phase HPLC collecting the DHT fraction. The fraction was reduced to dryness and reconstituted in standard commercial DHT assay buffer. DHT levels then were measured using standard techniques such as radioimmunoassay.

[3] = test system: seminal vesicle; assay: testosterone induced regrowth of the involuted seminal vesicle of castrated male rats; assay type: in vivo, rat; conditions: castrated + testosterone implant, 10 days, N = 5 rats/group
Source text: as §1, §2, §3

[4] = test system: involuted ventral prostate; conditions: Stoner, et al. (1987) Endocrinology 120:774; cited from earlier work

SMILES: CC(C)(C)NC(=O)[C@H]1CC[C@H]2[C@@H]3CC[C@H]4NC(=O)C=C[C@]4(C)[C@H]3CC[C@]12C [compound A, N-t-butyl-5-α-androst-1-ene-4-aza-17β-carboxamide-3-one]
- mechanism of inhibition versus testosterone [1]: competitive inhibitor
- Ventral Prostate DNA (μg/gland) ([2]; BID 12.5 mg/kg oral): 289 ± 17 μg/gland
- Ventral Prostate weight (mg/gland) ([2]; BID 12.5 mg/kg oral): 71 ± 11 mg/gland
- Ventral Prostate DNA (μg/gland) ([2]; BID 25 mg/kg oral): 290 ± 25 μg/gland
- Ventral Prostate weight (mg/gland) ([2]; BID 25 mg/kg oral): 55 ± 7 mg/gland
- Ventral Prostate DNA (μg/gland) ([2]; BID 50 mg/kg oral): 284 ± 19 μg/gland
- Ventral Prostate weight (mg/gland) ([2]; BID 50 mg/kg oral): 62 ± 7 mg/gland
- Seminal Vesicle DNA (μg/gland) ([3]; BID 12.5 mg/kg oral): 692 ± 51 μg/gland
- Seminal Vesicle weight (mg/gland) ([3]; BID 12.5 mg/kg oral): 118 ± 5 mg/gland
- Seminal Vesicle DNA (μg/gland) ([3]; BID 25 mg/kg oral): 708 ± 72 μg/gland
- Seminal Vesicle weight (mg/gland) ([3]; BID 25 mg/kg oral): 108 ± 10 mg/gland
- Seminal Vesicle DNA (μg/gland) ([3]; BID 50 mg/kg oral): 698 ± 39 μg/gland
- Seminal Vesicle weight (mg/gland) ([3]; BID 50 mg/kg oral): 108 ± 7 mg/gland
- plateau dose-response effect on prostate weight reported in other studies [4]: plateau dose-response effect

SMILES: CC(C)N(C(=O)[C@H]1CC[C@H]2[C@@H]3CC=C4C=C(C(=O)O)CC[C@]4(C)[C@H]3CC[C@]12C)C(C)C [compound B, N,N-diisopropyl-androst-3,5-diene-17β-carboxamide-3-carboxylic acid]
- mechanism of inhibition versus testosterone [1]: uncompetitive inhibitor

SMILES: CC(C)(C)NC(=O)[C@H]1CC[C@H]2[C@@H]3CC=C4C=C(C(=O)O)CC[C@]4(C)[C@H]3CC[C@]12C [compound C, N-t-butyl-androst-3,5-diene-17β-carboxamide-3-carboxylic acid]
- mechanism of inhibition versus testosterone [1]: uncompetitive inhibitor
- Ventral Prostate DNA (μg/gland) ([2]; BID 12.5 mg/kg oral): 359 ± 36 μg/gland
- Ventral Prostate weight (mg/gland) ([2]; BID 12.5 mg/kg oral): 154 ± 22 mg/gland
- Ventral Prostate DNA (μg/gland) ([2]; BID 25 mg/kg oral): 383 ± 29 μg/gland
- Ventral Prostate weight (mg/gland) ([2]; BID 25 mg/kg oral): 143 ± 17 mg/gland
- Ventral Prostate DNA (μg/gland) ([2]; BID 50 mg/kg oral): 316 ± 52 μg/gland
- Ventral Prostate weight (mg/gland) ([2]; BID 50 mg/kg oral): 147 ± 15 mg/gland
- Seminal Vesicle DNA (μg/gland) ([3]; BID 12.5 mg/kg oral): 851 ± 47 μg/gland
- Seminal Vesicle weight (mg/gland) ([3]; BID 12.5 mg/kg oral): 158 ± 15 mg/gland
- Seminal Vesicle DNA (μg/gland) ([3]; BID 25 mg/kg oral): 890 ± 58 μg/gland
- Seminal Vesicle weight (mg/gland) ([3]; BID 25 mg/kg oral): 170 ± 19 mg/gland
- Seminal Vesicle DNA (μg/gland) ([3]; BID 50 mg/kg oral): 855 ± 63 μg/gland
- Seminal Vesicle weight (mg/gland) ([3]; BID 50 mg/kg oral): 159 ± 20 mg/gland

Source: patent US5516768A, “Uncompetitive inhibition of steroid and 5α-reductose” (priority 1990, dated 1996)
